# Test results taken from patent US8404751B2, “Subunguicide, and method for treating onychomycosis” (Hallux, Inc., priority 2002, dated 2013).
# Counter-ions that a name gives are not always drawn.
# Experiment: Solubility of terbinafine HCl in isopropyl alcohol
# Assay type: physicochemical
# Procedure: Terbinafine free base was prepared by adding 2.0 g of terbinafine HCl to 8.0 g of isopropyl alcohol (IPA) and 4.0 g Dowex Marathon A OH ion exchange resin. This resin exchanges OH^− for Cl^− and was washed with IPA prior to use. With the Cl^− removed from solution, the free base formed and the terbinafine went into solution within 5-10 minutes. (Terbinafine HCl is soluble in IPA up to 3.7%.) The reaction with the resin was run for 4 hours. Presence of the free base was confirmed by adding a drop of this IPA solution into water and measuring pH with a color strip. Adding the IPA solution caused the water pH to increase approximately one unit. The resin added OH^− to the solution, which reacted with H^+ and increased the water content. Excess water was removed by storing the terbinafine free base solution over molecular sieves for one week.
compound,measurement,value
"CN(C/C=C/C#CC(C)(C)C)Cc1cccc2ccccc12 [Terbinafine HCl, terbinafine HCl]",soluble in IPA up to,3.7%
